Experimental findings from ChEMBL document CHEMBL3397033, “Bioactive benzofuran derivatives: moracins A-Z in medicinal chemistry” (Eur J Med Chem, 2015) are described below.

The subject of data set [1] is Escherichia coli. As to the kind of experiment: Antimicrobial activity against Escherichia coli. Type of data set: functional.
For data set [2], the system named is Klebsiella pneumoniae. As to the kind of experiment: Antimicrobial activity against Klebsiella pneumoniae. It counts as functional.
Data set [3] concerns Pseudomonas aeruginosa. As to the kind of experiment: Antimicrobial activity against Pseudomonas aeruginosa. Type of data set: functional.
Data set [4] can be described thus: Antioxidant activity assessed as DPPH radical scavenging activity measured as discoloration at 12.5 ug/ml. It counts as physicochemical. For orientation: The DPPH test is a chemical assay of radical scavenging.
Data set [5] is described as follows: Antioxidant activity assessed as DPPH radical scavenging activity measured as discoloration at 25 ug/ml. Type of data set: physicochemical.
Data set [6] is described as follows: Antioxidant activity assessed as DPPH radical scavenging activity measured as discoloration at 50 ug/ml. It counts as physicochemical.
A short description of data set [7]: Antioxidant activity assessed as DPPH radical scavenging activity measured as discoloration at 100 ug/ml. It counts as physicochemical.
Data set [8] can be described thus: Antioxidant activity assessed as DPPH radical scavenging activity. It counts as physicochemical.
For data set [9], the system named is A549. As to the kind of experiment: Cytotoxicity against human A549 cells after 96 hrs by MTT assay. Type of data set: functional, cell-based. As to conditions: A549, 96 h.
A short description of data set [10]: Cytotoxicity against human Bel7402 cells after 96 hrs by MTT assay. It counts as functional, cell-based. As to conditions: Bel-7402, 96 h. In general terms: Tetrazolium assays rely on reduction of a dye to a coloured formazan, in cell work by metabolically active cells.
Data set [11] in a line: Cytotoxicity against human BGC823 cells after 96 hrs by MTT assay. It counts as functional, cell-based. The conditions noted are these: BGC-823, 96 h.
Data set [12] can be described thus: Cytotoxicity against human HCT8 cells after 96 hrs by MTT assay. It counts as functional, cell-based. The conditions noted are these: HCT-8, 96 h.
For data set [13], the system named is A2780. As to the kind of experiment: Cytotoxicity against human A2780 cells after 96 hrs by MTT assay. As to conditions: A2780, 96 h. It counts as functional, cell-based.
The nature of data set [14]: Antifungal activity against Fusarium roseum. Type of data set: functional.
Data set [15] can be described thus: Antifungal activity against Fusarium lateritium f. sp. mori. It counts as functional.
Data set [16] can be described thus: Antifungal activity against Fusarium solani f. sp. mori. It counts as functional.
Data set [17] in a line: Antifungal activity against Diaporthe nomurai. Type of data set: functional.
Data set [18] can be described thus: Antifungal activity against Stigmina mori. It counts as functional.
In data set [19] the test system is Rosellinia necatrix. As to the kind of experiment: Antifungal activity against Rosellinia necatrix. It counts as functional.
The nature of data set [20]: Antifungal activity against Cochliobolus miyabeanus. As to conditions: Bipolaris oryzae. Type of data set: functional.
For data set [21], the system named is Escherichia coli. Description: Antimicrobial activity against Escherichia coli by liquid microdilution assay. It counts as functional. In general terms: In broth dilution the organism is exposed to a series of concentrations in liquid medium.
Data set [22] has as its system Shigella dysenteriae. Description: Antimicrobial activity against Shigella dysenteriae by liquid microdilution assay. It counts as functional.
Data set [23] relates to Pseudomonas aeruginosa. As to the kind of experiment: Antimicrobial activity against Pseudomonas aeruginosa by liquid microdilution assay. It counts as functional.
Data set [24] deals with Klebsiella pneumoniae. Description: Antimicrobial activity against Klebsiella pneumoniae by liquid microdilution assay. Type of data set: functional.
The subject of data set [25] is Salmonella typhi. Description: Antimicrobial activity against Salmonella typhi by liquid microdilution assay. It counts as functional, Salmonella enterica subsp. enterica serovar Typhi. The conditions noted are these: Salmonella enterica.
Data set [26] has as its system Bacillus cereus. As to the kind of experiment: Antimicrobial activity against Bacillus cereus by liquid microdilution assay. It counts as functional.
The test system of data set [27] is Staphylococcus aureus. Description: Antimicrobial activity against Staphylococcus aureus by liquid microdilution assay. It counts as functional.
Data set [28] deals with Enterococcus faecalis. As to the kind of experiment: Antimicrobial activity against Streptococcus faecalis by liquid microdilution assay. It counts as functional.
The test system of data set [29] is Microsporum audouinii. Description: Antimicrobial activity against Microsporum audouinii by liquid microdilution assay. Type of data set: functional.
Data set [30] concerns Escherichia coli. Description: Microbicidal activity against Escherichia coli by liquid microdilution assay. It counts as functional.
Data set [31] concerns Shigella dysenteriae. Description: Microbicidal activity against Shigella dysenteriae by liquid microdilution assay. Type of data set: functional.
Data set [32] has as its system Pseudomonas aeruginosa. As to the kind of experiment: Microbicidal activity against Pseudomonas aeruginosa by liquid microdilution assay. Type of data set: functional.
In data set [33] the test system is Klebsiella pneumoniae. Description: Microbicidal activity against Klebsiella pneumoniae by liquid microdilution assay. Type of data set: functional.
Data set [34] deals with Salmonella typhi. Description: Microbicidal activity against Salmonella typhi by liquid microdilution assay. It counts as functional, Salmonella enterica subsp. enterica serovar Typhi. As to conditions: Salmonella enterica.
Data set [35] concerns Bacillus cereus. Description: Microbicidal activity against Bacillus cereus by liquid microdilution assay. Type of data set: functional.
For data set [36], the system named is Staphylococcus aureus. As to the kind of experiment: Microbicidal activity against Staphylococcus aureus by liquid microdilution assay. It counts as functional.
Data set [37] concerns Enterococcus faecalis. Description: Microbicidal activity against Streptococcus faecalis by liquid microdilution assay. It counts as functional.
The subject of data set [38] is Microsporum audouinii. As to the kind of experiment: Microbicidal activity against Microsporum audouinii by liquid microdilution assay. Type of data set: functional.
Data set [39] has as its system RAW264.7. Description: Antiinflammatory activity against mouse RAW264.7 cells assessed as reduction of IFNgamma-induced NO production. Type of data set: functional, cell-based.
In data set [40] the test system is RAW264.7. As to the kind of experiment: Antiinflammatory activity against mouse RAW264.7 cells assessed as reduction of LPS-induced NO production. Type of data set: functional, cell-based.

Values after ≈ are worked out from the molar mass of the structure shown.

Turning to `CC(C)=CCc1c(O)ccc2cc(-c3cc(O)cc(O)c3)oc12`, the minimum inhibitory concentration (MIC) in [1], in data set [2] and in data set [3] was above 100 µg/mL each time. The Activity is on record as 55% in [4], 62.25% in data set [5], 67.87% in data set [6] and 69.72% in data set [7]. Moreover, in data set [8], the half-maximal effective concentration (EC50) turned out to be 5.06 µg/mL (≈ 16.3 µM).

Regarding `COc1cc2oc(-c3cc(O)cc(O)c3)cc2cc1O`, the MIC in data set [1], in data set [2] and in data set [3] was above 100 µg/mL each time.

Regarding `O=Cc1cc2cc(-c3cc(O)cc(O)c3)oc2cc1O`, the MIC in [1], in data set [2] and in data set [3] was above 100 µg/mL throughout. The concentration for half-maximal inhibition (IC50) was above 10 µg/mL in data set [9]; 6.8 µg/mL (≈ 25.2 µM) in [10]; 7.6 µg/mL (≈ 28.1 µM) in [11]; 6.3 µg/mL (≈ 23.3 µM) in data set [12]; 6.9 µg/mL (≈ 25.5 µM) in [13].

Consider `CC1(C)C=Cc2c(cc(O)cc2-c2cc3ccc(O)cc3o2)O1`, for which the MIC in data set [1] is above 100 µg/mL; in data set [2], above 100 µg/mL; in data set [3], above 100 µg/mL; in [14], 15 µg/mL (≈ 48.6 µM); in data set [15], 50 µg/mL (≈ 162 µM); in data set [16], 200 µg/mL (≈ 649 µM). Besides, the MIC in [17] amounted to 15 µg/mL (≈ 48.6 µM); in data set [18], 200 µg/mL (≈ 649 µM); in data set [19] it was 15 µg/mL (≈ 48.6 µM); in [20], 100 µg/mL (≈ 324 µM).

Turning to `COc1cc(O)cc(-c2cc3ccc(O)cc3o2)c1CC=C(C)C` [MORACIN I], the minimum inhibitory concentration (MIC) in data set [1], in [2] and in data set [3] was above 100 µg/mL each time.

Regarding `COc1cc(O)cc(-c2cc3cc(O)c(OC)cc3o2)c1`, the MIC in [1], in [2] and in data set [3] was above 100 µg/mL in each case.

With `COc1cc(OC)c2cc(-c3cc(O)cc(O)c3)oc2c1`, the MIC in data set [1], in data set [2] and in data set [3] was above 100 µg/mL throughout.

For `CC(C)(O)C(O)Cc1cc2cc(-c3cc(O)cc(O)c3)oc2cc1O` (centres undefined), the MIC in data set [1] was above 100 µg/mL; in [2] it was above 100 µg/mL; in data set [3] it was above 100 µg/mL; in [21], 78 µg/mL (≈ 227 µM); in [22], 78 µg/mL (≈ 227 µM); in [23], 10 µg/mL (≈ 29 µM). The MIC was found to be 312 µg/mL (≈ 906 µM) in data set [24]; 156 µg/mL (≈ 453 µM) in data set [25]; 156 µg/mL (≈ 453 µM) in [26]; 312 µg/mL (≈ 906 µM) in [27]; 156 µg/mL (≈ 453 µM) in [28]; 312 µg/mL (≈ 906 µM) in data set [29]. Further, the MBC in data set [30] turned out to be 625 µg/mL (≈ 1810 µM); in data set [31] it was 312 µg/mL (≈ 906 µM); in data set [32] it was 39 µg/mL (≈ 113 µM); in data set [33], 625 µg/mL (≈ 1810 µM); in [34], 312 µg/mL (≈ 906 µM); in [35], 625 µg/mL (≈ 1810 µM). Further, the minimum bactericidal concentration (MBC) is 625 µg/mL (≈ 1810 µM) in [36] and 312 µg/mL (≈ 906 µM) in [37]. Further, in data set [38], the MFC amounted to 625 µg/mL (≈ 1810 µM). Moreover, the Activity is on record as 34.6% in [4], 38.2% in [5], 48% in [6] and 50% in data set [7]. Also, in data set [8], the EC50 is 7.17 µg/mL (≈ 20.8 µM). For the same compound, the IC50 in data set [39] and in data set [40] was 14.3 µM in each case.

With `CC1=CCc2c(c(O)cc3cc(-c4cc(O)cc(O)c4)oc23)OC1`, the minimum inhibitory concentration (MIC) in data set [1], in data set [2] and in data set [3] was above 100 µg/mL throughout.

Broadly, the MIC is the smallest concentration in the dilution series that meets the test's criterion for growth inhibition. High values mean a less susceptible organism, low ones a more susceptible organism. In general, EC50 refers to the concentration needed to bring the measured effect to its halfway point. In general, IC50 refers to the concentration that inhibits the measured activity by half. What is called MBC is the lowest tested concentration that kills the bacteria rather than only halting them.
